Reference: patent US9758501B2, “Fluorophore 3-hydroxyflavone” (TUBITAK (TURKIYE BILIMSEL VE TEKNOLOJIK ARASTIRMA KURUMU), priority 2013, dated 2017)

Key:
[1] = tested on: T25: single-strain DNA chain, comprising 25 Thymines; experiment: Fluorescence N*/T* ratio vs DNA concentration, T25; details: T25 added to 3-HFNMe3 in ultra pure water
Protocol: T25: A single-strain DNA chain, comprising 25 Thymines
(§1) Fluorescence emission was then recorded after each addition the DNA solution (2 μl, 20 nmol/ml). The ratio of N* and T* bands was calculated and a graph, having N*/T* ratio vs DNA concentration was plotted.

single-strain DNA chains = experiment: Fluorescence measurements on gradual addition of DNA solution; details: ultra pure water; DNA solution added in 2 μl portions (20 nmol/ml)
Protocol: as §1

[2] = tested on: C25: single-strain DNA chain, comprising 25 Cytosines; experiment: Fluorescence N*/T* ratio vs DNA concentration, C25; details: C25 added to 3-HFNMe3 in ultra pure water
Protocol: C25: A single-strain DNA chain, comprising 25 Cytosines
as §1

Substance: N-(3-hydroxy-4′-flavonyl)-N,N,N-trimethylammonium sulphate [3-HFNMe3]
- N*/T* curve, rank among DNA chains [1]: lowest
- effect of DNA addition on fluorescence emission (single-strain DNA chains): ratiometric quenching of particularly the N* band
- N*/T* curve, rank among DNA chains [2]: highest
